Assay results: ChEMBL document CHEMBL1201862, “PubChem BioAssay data set” (2004)
Active and inactive are the calls of the source.

How the values were obtained:
[1] = biological target: Dual specificity protein kinase CLK1 (Homo sapiens, UniProt P49759); test: inhibition of human CLK1 activity – biochemical, cherry-picked samples, selectivity assay for Dyrk1A inhibitor project, dose response (AID 588811)
[2] = biological target: Female germline-specific tumor suppressor gld-1 (Caenorhabditis elegans, UniProt Q17339); test: blockers of GLD-1/TGE RNA complex formation – biochemical, fluorescence polarization, C. elegans, dose response (AID 2802);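 also: fluorescence polarization of labeled TGE RNA bound by purified gld-1 protein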
Female germline-specific tumor suppressor gld-1, sequence (Q17339 whole entry): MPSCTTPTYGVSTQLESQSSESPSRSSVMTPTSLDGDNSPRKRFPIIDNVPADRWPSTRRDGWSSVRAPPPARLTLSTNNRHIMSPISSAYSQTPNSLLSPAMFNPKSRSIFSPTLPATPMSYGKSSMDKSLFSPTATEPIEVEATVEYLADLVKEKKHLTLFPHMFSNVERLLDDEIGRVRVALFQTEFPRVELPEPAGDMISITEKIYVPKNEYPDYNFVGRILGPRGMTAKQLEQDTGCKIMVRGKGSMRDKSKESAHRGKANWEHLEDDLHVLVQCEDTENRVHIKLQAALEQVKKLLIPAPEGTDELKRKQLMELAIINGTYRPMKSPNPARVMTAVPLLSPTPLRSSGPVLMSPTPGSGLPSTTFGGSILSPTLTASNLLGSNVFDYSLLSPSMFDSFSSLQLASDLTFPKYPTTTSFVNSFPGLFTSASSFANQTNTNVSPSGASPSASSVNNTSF

[3] = biological target: Dual specificity tyrosine-phosphorylation-regulated kinase 1A (Rattus norvegicus, UniProt Q63470); assay type: biochemical, Homo sapiens
Protein Rev = Protein Rev (Human immunodeficiency virus type 1 group M subtype B (isolate HXB2)(HIV-1), UniProt P04618); test: blockers of HIV Rev/RRE RNA complex – biochemical, fluorescence polarization, HIV-1, dose response (AID 434976); parameters: species or system Human immunodeficiency virus 1
Protein Rev, sequence (P04618 whole entry): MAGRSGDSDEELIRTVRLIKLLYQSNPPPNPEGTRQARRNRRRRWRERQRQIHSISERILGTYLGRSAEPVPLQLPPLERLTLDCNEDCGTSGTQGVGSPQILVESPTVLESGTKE

Vero = test: viability of Vero cells under compound – cytotoxicity control for flavivirus capping enzyme inhibitors (AID 588742); assay type: functional; conditions: Chlorocebus sabaeus
Genome polyprotein = Genome polyprotein (dengue virus type 2, UniProt P29990); test: flavivirus cap methylation enzyme inhibition – biochemical, confirmation dose response, primary screen (AID 588689); assay type: functional
Genome polyprotein, sequence (P29990 2492-3391 limits assumed): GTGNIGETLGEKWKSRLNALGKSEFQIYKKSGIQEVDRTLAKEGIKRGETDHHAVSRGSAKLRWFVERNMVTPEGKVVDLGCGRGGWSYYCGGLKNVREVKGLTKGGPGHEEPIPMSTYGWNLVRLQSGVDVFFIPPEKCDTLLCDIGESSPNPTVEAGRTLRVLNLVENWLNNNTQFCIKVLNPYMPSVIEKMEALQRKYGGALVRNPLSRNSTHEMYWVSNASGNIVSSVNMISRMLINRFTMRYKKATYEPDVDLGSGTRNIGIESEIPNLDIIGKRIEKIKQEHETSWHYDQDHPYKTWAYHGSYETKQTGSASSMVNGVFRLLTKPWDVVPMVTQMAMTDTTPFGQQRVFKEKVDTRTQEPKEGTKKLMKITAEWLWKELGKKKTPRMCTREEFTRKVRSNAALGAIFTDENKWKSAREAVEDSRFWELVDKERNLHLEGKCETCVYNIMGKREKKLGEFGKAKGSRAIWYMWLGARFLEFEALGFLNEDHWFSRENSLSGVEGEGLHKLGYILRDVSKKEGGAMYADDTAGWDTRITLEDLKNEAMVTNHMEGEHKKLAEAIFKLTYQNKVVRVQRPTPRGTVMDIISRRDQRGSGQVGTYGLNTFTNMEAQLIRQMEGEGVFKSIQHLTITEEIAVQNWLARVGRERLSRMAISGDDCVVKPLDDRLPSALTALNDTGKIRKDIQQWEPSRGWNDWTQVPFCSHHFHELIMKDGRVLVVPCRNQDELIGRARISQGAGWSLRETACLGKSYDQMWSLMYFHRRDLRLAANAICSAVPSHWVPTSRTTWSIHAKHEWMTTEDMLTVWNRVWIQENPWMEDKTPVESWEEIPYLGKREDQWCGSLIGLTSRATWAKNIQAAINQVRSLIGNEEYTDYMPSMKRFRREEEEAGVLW

[4] = biological target: T1, Nuclear receptor subfamily 0 group B member 1 (Homo sapiens, UniProt P51843); test: Luminescence-based cell-based high throughput dose response assay for inhibitors of the orphan nuclear receptor subfamily 0, group B, member 1 (DAX1; NR0B1). [Related pubchem assays (depositor defined):AID504766, AID504790]; assay type: functional
T1 sequence (P51843 whole entry): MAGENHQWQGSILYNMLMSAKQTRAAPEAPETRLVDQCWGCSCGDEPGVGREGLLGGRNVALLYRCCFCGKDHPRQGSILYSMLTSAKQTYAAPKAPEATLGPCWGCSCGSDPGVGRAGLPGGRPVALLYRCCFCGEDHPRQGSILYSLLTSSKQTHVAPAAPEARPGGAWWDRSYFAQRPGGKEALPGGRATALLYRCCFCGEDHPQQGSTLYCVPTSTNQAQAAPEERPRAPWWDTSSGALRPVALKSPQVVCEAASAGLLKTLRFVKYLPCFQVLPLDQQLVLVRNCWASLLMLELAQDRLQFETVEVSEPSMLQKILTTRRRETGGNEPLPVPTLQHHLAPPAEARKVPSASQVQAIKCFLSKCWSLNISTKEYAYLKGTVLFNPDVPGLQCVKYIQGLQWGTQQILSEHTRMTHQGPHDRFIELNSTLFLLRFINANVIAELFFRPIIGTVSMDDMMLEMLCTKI

HEK293 = test: cells; assay type: functional, cell-based; conditions: Homo sapiens
Phospholipase D1 = biological target: T2, Phospholipase D1 (Homo sapiens, UniProt Q13393); test: cellular phospholipase D1 inhibition IC50 – cell-based, dose response (AID 602151); assay type: functional;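 also: cellular PLD1 assay in Calu-1 cells stimulated with PMA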
T2 sequence (Q13393 whole entry): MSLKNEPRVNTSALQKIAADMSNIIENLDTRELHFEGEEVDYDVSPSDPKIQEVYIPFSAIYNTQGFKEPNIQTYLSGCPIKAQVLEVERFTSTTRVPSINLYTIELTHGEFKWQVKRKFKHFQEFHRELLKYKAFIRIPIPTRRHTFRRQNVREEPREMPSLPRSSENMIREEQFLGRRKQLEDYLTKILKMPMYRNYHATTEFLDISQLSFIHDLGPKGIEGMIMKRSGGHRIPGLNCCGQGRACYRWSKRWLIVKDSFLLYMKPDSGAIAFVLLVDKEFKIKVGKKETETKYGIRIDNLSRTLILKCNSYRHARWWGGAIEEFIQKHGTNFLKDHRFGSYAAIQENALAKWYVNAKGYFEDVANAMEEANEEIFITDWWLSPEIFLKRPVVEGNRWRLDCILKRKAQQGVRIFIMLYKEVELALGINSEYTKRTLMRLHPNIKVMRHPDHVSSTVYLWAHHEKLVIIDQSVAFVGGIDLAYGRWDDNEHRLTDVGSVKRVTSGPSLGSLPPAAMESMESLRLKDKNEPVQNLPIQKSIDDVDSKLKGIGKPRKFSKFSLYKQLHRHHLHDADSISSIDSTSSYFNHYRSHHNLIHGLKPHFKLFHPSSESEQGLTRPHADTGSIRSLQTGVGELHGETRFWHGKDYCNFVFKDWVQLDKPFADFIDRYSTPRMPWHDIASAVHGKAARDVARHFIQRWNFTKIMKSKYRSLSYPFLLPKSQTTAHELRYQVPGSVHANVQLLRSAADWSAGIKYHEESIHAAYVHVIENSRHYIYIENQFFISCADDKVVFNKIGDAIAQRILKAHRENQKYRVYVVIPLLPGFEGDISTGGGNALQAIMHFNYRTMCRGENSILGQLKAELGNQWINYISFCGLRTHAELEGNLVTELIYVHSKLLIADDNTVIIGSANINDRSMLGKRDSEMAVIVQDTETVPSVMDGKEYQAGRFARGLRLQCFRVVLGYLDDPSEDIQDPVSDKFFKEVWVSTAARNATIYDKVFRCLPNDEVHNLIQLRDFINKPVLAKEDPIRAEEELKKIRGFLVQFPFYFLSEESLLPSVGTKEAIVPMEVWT

Phospholipase D2 = Phospholipase D2 (Homo sapiens, UniProt O14939); test: cellular phospholipase D2 inhibition IC50 – cell-based, dose response (AID 602147); assay type: functional;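 also: cellular assay in HEK293 cells overexpressing GFP-tagged PLD2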
Phospholipase D2, sequence (O14939 whole entry): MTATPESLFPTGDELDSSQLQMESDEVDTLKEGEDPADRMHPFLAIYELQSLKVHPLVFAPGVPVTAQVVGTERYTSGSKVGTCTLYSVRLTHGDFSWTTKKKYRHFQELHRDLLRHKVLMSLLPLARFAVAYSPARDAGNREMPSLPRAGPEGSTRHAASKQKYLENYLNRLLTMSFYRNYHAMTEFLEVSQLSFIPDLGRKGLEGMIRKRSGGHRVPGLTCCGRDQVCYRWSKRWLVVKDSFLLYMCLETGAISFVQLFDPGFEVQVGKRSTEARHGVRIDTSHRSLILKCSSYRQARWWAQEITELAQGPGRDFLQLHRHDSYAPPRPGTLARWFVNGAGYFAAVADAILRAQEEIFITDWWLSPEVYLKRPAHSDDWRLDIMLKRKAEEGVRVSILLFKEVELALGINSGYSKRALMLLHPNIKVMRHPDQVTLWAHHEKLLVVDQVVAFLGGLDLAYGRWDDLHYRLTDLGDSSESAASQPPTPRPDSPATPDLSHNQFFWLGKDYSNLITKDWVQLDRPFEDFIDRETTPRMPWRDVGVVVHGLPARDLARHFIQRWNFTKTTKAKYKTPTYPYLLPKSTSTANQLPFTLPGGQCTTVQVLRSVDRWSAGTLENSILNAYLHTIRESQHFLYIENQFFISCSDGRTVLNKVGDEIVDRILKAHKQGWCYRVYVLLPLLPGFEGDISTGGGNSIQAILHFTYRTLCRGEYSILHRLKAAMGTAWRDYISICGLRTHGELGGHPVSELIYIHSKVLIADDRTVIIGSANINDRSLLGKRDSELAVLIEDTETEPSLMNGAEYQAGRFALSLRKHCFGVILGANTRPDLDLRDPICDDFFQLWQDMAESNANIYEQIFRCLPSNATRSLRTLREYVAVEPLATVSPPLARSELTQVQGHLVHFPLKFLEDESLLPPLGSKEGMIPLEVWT

Candida albicans [5] = test: resistant Candida growth with fluconazole co-treatment – CaCi-8 strain, Alamar Blue, dry powder, set 2, dose response (AID 488909); assay type: functional, organism-based
Candida albicans [6] = test: Candida growth reduction in fluconazole presence – CaCi-2 strain, Alamar Blue, dry powder, set 2, antifungal resistance reversal project, dose response (AID 488930); assay type: functional, organism-based
Candida albicans [7] = test: C. albicans growth inhibition with fluconazole – CaCi-2 strain, Alamar Blue, dry powder, set 4, dose response (AID 488943); assay type: functional, organism-based
Candida albicans [8] = test: fluconazole-resistant Candida strain growth inhibitors – CaCi-8 strain, dry powder, set 4, dose response (AID 488950); assay type: functional, organism-based
[9] = viability loss of HMLE_sh_eGFP cells – cell-based, luminescence, counter-screen for HMLE_sh_ECad selective toxicity project, dose response (AID 463074); assay type: functional, Homo sapiens;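 also: HMLE human mammary epithelial cells expressing control shRNA against eGFP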
[10] = biological target: SWI/SNF-related matrix-associated actin-dependent regulator of chromatin subfamily A member 2 (Homo sapiens, UniProt P51531); test: Luminescence-based cell-based high throughput dose response assay to identify activators of the function of SWI/SNF related, matrix associated, actin dependent regulator of chromatin, subfamily a, member 2 (SMARCA2, BRM).; assay type: functional
SWI/SNF-related matrix-associated actin-dependent regulator of chromatin subfamily A member 2, sequence (P51531 whole entry): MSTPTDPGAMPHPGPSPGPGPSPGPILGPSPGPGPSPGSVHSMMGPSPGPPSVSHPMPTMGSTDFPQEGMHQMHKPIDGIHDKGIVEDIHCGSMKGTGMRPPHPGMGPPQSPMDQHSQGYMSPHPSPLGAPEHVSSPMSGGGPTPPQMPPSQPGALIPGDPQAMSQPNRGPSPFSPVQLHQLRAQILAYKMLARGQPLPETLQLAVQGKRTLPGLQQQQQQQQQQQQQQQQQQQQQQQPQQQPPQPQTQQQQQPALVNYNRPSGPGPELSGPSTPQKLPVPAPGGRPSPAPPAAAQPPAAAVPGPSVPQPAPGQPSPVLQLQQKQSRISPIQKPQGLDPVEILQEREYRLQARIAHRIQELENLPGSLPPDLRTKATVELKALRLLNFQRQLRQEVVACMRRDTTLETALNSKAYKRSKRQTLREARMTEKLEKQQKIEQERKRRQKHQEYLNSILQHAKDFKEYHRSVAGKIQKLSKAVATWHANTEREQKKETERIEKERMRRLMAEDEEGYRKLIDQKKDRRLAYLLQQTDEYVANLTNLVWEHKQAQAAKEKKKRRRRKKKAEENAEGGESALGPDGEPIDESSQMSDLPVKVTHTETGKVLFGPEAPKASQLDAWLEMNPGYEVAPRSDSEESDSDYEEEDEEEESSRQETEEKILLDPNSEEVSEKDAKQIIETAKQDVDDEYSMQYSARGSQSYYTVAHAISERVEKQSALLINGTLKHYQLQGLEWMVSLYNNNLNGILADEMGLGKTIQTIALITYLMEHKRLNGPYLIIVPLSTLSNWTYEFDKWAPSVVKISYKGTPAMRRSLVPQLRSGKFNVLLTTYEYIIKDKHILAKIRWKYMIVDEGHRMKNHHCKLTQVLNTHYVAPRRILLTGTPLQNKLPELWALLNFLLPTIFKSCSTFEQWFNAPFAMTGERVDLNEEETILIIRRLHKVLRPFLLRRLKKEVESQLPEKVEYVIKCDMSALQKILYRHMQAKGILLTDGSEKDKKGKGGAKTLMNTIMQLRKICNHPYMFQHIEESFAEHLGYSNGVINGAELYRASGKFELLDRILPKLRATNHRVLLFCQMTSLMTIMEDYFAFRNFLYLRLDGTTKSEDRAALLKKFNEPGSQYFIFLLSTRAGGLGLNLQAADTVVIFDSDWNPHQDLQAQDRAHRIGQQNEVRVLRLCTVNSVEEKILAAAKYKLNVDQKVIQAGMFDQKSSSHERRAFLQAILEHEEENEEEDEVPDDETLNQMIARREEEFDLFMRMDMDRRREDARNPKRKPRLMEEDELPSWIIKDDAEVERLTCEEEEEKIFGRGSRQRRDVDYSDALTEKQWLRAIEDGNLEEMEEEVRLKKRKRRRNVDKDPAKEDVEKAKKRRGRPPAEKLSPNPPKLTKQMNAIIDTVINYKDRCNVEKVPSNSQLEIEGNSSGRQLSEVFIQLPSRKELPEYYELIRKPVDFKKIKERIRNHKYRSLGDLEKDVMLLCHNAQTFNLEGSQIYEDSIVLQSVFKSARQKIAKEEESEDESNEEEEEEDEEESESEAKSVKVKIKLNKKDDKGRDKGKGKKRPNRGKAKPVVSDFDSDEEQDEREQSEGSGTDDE

[11] = biological target: T3, Latent membrane protein 1 (Human herpesvirus 4 (strain B95-8), UniProt P03230); test: LMP1 TES1 pathway selectivity over dsRED control – imaging, HEK293T, dual-color eGFP/dsRED, cherry-picks, selectivity assay for LMP1 NF-kB inhibitor project, dose response (AID 588398); assay type: functional, cell-based
T3 sequence (P03230 whole entry): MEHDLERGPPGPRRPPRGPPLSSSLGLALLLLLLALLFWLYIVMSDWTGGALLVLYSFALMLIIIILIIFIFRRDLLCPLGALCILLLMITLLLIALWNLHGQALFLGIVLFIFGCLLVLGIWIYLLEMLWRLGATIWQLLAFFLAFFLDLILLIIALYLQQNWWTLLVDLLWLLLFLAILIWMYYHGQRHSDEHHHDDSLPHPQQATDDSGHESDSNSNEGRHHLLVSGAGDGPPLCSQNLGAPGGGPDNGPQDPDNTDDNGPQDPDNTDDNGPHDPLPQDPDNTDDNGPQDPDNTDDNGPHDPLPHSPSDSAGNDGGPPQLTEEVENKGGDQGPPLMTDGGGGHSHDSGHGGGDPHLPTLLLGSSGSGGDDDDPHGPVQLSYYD

[12] = Luminescence Cell-Based Dose Retest to Confirm Inhibitors of Cancer Stem Cells. [Related pubchem assays (depositor defined):AID2717, AID2721]; assay type: functional; conditions: Homo sapiens
[13] = Counterscreen for activators of the function of SWI/SNF related, matrix associated, actin dependent regulator of chromatin, subfamily a, member 2 (SMARCA2, BRM): Luminescence-based cell-based high throughput dose response assay to identify non-selective compounds using the VP16 reporter assay.; assay type: functional

Dual specificity protein kinase CLK1, sequence (P49759 whole entry): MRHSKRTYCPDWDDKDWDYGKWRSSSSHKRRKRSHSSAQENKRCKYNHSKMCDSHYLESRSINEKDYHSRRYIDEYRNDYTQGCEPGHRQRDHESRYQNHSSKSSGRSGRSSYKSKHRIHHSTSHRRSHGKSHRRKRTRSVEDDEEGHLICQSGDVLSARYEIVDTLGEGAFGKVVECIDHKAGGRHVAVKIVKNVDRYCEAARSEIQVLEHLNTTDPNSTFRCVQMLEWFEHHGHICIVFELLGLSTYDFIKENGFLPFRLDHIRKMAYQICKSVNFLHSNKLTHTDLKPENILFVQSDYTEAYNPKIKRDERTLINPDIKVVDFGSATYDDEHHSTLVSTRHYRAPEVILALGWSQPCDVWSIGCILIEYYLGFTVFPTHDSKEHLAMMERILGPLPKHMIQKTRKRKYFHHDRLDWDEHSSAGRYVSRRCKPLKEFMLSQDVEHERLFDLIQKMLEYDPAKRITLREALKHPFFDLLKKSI

Brc1ccc(CNc2nccc(-c3ccc4c(c3)OCO4)n2)cc1Br
AC50 [1]: 0.0049 µM (active)

COc1cc(O)cc2cc3c(c(O)c12)C(=O)CC(C)(O)O3 (centres undefined)
IC50 [2]: 2.96 µM (active)
AC50 [3]: 2.92 µM (active)
IC50 (Protein Rev): 16.2 µM (not active)
CC50 (Vero): > 40 µM (active)
IC50 (Genome polyprotein): 38.1 µM (active)

Cc1ccccc1NC(=O)Nc1nc2ccc(S(C)(=O)=O)cc2s1
IC50 [4]: > 67.5 µM (inactive)
IC50 (HEK293): > 67.5 µM (inactive)

C[C@@H](CN1CCC(n2c(=O)[nH]c3ccc(F)cc32)CC1)NC(=O)c1ccc(Cl)cc1
IC50 (Phospholipase D1): 0.004 µM (active)
IC50 (Phospholipase D2): 0.434 µM (active)

O=C(c1ccc(Cl)cn1)N1CCN(c2ccnc3cc(Cl)ccc23)CC1
AC50 (Candida albicans [5]): < 0.195 µM (active)
AC50 (Candida albicans [6]): 0.316 µM (active)
AC50 (Candida albicans [7]): 2.47 µM (active)
AC50 (Candida albicans [8]): 3.17 µM (active)

C=CC(=O)OCCOCCOCCOCCOC(=O)C=C
AC50 [9]: 92 µM (active)
EC50 [10]: > 91.2 µM (inactive)
AC50 [11]: 25 µM (active)
AC50 [12]: 19.2 µM (active)
EC50 [13]: > 91.2 µM (inactive)
